# Where two headings read alike, the source gives them in different places.
# Experiments:
# [1] = biological target: CYP3A4 (Homo sapiens, UniProt P08684); test: CYP3A4 testosterone 6β-hydroxylase assay in human liver microsomes; type: in vitro ADME; settings: for inhibition of CYP3A4 in HLM (in words): even upto 50 μM concentrations
# [2] = biological target: CYP2D6 (Homo sapiens, UniProt P10635); test: CYP2D6 dextromethorphan O-demethylation assay in human liver microsomes; type: in vitro ADME; settings: for inhibition of CYP2D6 in HLM (in words): even upto 50 μM concentrations
# Chain of CYP2D6 (P10635 whole entry): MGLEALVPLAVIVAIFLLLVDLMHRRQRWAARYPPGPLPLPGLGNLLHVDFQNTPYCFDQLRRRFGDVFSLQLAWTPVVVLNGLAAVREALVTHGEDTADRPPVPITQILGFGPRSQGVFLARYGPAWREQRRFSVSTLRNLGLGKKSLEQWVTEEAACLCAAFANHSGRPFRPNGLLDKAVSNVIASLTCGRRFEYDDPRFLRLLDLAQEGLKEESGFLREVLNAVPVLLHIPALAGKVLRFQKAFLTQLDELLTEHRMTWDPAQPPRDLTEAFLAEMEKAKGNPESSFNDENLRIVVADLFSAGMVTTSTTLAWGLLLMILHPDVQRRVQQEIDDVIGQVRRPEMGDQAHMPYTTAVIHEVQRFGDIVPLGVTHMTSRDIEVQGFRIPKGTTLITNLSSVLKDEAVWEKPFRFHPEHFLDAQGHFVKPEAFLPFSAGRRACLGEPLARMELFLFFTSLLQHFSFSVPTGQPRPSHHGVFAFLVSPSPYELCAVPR
# [3] = test system: CYP1A enzyme; settings: rat liver microsomes; cited from earlier work
# [4] = test system: CYP1A enzyme; settings: human liver microsomes; cited from earlier work
# [5] = stated in discussion, no experiment and reference not given, cited from earlier work
# [6] = biological target: CYP2C9 (Homo sapiens, UniProt P11712); test: CYP2C9 diclofenac 4′-hydroxylation assay in human liver microsomes; settings: for inhibition of CYP2C9 in HLM (in words): even upto 50 μM concentrations
# Chain of CYP2C9 (P11712 whole entry): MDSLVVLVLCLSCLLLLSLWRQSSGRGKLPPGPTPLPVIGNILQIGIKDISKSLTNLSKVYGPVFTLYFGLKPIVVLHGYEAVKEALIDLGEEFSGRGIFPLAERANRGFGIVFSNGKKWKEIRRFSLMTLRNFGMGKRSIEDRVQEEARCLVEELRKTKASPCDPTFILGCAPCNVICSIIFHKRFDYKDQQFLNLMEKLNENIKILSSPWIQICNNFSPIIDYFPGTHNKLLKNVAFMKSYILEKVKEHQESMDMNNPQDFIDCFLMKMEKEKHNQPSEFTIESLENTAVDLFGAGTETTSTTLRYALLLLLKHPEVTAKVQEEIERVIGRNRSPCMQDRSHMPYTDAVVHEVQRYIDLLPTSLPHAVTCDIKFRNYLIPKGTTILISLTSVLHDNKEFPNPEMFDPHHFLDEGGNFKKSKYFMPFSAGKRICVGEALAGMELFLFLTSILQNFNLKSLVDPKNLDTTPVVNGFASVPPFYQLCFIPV
# [7] = IC50 values CYP3A4 (in μg/ml, in brackets), HLM, μM bound converted to μg/ml
# [8] = IC50 values CYP3A4, HLM, testosterone 100 μM, tested 1–50 μM
# [9] = IC50 values CYP2D6 (in μg/ml, in brackets), HLM, μM bound converted to μg/ml
# [10] = IC50 values CYP2D6, HLM, dextromethorphan 8 μM, tested 1–50 μM
# [11] = IC50 values CYP2C9 (in μg/ml, in brackets), HLM, μM bound converted to μg/ml
# [12] = IC50 values CYP2C9, HLM, diclofenac 50 μM, tested 1–50 μM
# Chain of CYP3A4 (P08684 whole entry): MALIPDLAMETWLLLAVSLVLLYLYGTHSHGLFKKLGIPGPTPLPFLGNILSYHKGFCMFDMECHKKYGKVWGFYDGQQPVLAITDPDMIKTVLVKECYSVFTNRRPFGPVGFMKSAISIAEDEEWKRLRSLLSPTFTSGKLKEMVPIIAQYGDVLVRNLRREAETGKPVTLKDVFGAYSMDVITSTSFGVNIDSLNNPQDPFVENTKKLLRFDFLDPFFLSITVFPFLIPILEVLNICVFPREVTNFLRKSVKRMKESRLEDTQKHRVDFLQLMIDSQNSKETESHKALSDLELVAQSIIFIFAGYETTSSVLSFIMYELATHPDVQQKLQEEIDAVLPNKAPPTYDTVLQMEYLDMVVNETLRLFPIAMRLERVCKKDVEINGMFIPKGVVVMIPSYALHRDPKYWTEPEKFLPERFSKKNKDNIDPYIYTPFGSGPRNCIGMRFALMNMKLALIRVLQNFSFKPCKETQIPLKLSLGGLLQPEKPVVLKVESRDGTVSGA
SMILES,"IC50 [1, 7] [µM]","IC50 [1, 8] [µM]",inhibition of CYP3A4 in HLM (in words) [1],"IC50 [2, 9] [µM]","IC50 [2, 10] [µM]",inhibition of CYP2D6 in HLM (in words) [2],inhibition of CYP1A enzyme (in words) [3],inhibition of CYP1A enzyme (in words) [4],solubility in hexane ([5]; hexane),solubility in methanol [5],"IC50 [6, 11] [µM]","IC50 [6, 12] [µM]",inhibition of CYP2C9 in HLM (in words) [6],solubility in water ([5]; water)
"CC1(C)CC[C@]2(C(=O)O)CC[C@]3(C)C(=CC[C@@H]4[C@@]5(C)C[C@@H](O)[C@H](O)[C@@](C)(CO)[C@@H]5CC[C@]43C)[C@@H]2[C@@H]1O [Arjungenin, arjungenin]",> 49.5,> 50,no significant inhibition,> 49.5,> 50,no significant inhibition,did not show inhibition,did not show inhibition,insoluble,freely soluble,> 49.5,> 50,no significant inhibition,–
CC1(C)CC[C@]2(C(=O)O)CC[C@]3(C)C(=CC[C@@H]4[C@@]5(C)C[C@@H](O)[C@H](O)C(C)(C)[C@@H]5CC[C@]43C)[C@@H]2[C@@H]1O [Arjunic acid],> 51.2,> 50,no significant inhibition,> 51.2,> 50,no significant inhibition,did not show inhibition,did not show inhibition,–,freely soluble,> 51.2,> 50,no significant inhibition,insoluble

# Reference: PMC5598323 (Toxicology Reports, 2015)
